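Protocol summary: plate cells (96-well), add compound at 5 concentrations, incubate 48 h, interpolate endpoints linearly. At the GI50, growth is halved. TGI denotes the concentration required for complete inhibition of growth.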
Experiments:
Test in all cases: inhibition of tumour cell growth, NCI panel, 48 h
SK-MEL-28 melanoma = test system: SK-MEL-28 melanoma
RPMI-8226 leukemia = test system: RPMI-8226 leukemia
SNB-19 CNS = test system: SNB-19 CNS
NCI-H226 lung = test system: NCI-H226 lung
RXF 393 renal = test system: RXF 393 renal
HS 578T breast = test system: HS 578T breast
LOX IMVI melanoma = test system: LOX IMVI melanoma
ACHN renal = test system: ACHN renal
HCT-116 colon = test system: HCT-116 colon
OVCAR-5 ovarian = test system: OVCAR-5 ovarian
M14 melanoma = test system: M14 melanoma
HOP-92 NSCLC = test system: HOP-92 NSCLC
MDA-N = test system: MDA-N

| Structure (SMILES) | TGI (SK-MEL-28 melanoma) | TGI (RPMI-8226 leukemia) | TGI (SNB-19 CNS) | TGI (NCI-H226 lung) | TGI (RXF 393 renal) | TGI (HS 578T breast) | TGI (LOX IMVI melanoma) | TGI (ACHN renal) | TGI (HCT-116 colon) | TGI (OVCAR-5 ovarian) | TGI (M14 melanoma) | TGI (HOP-92 NSCLC) | TGI (MDA-N) | GI50 (SK-MEL-28 melanoma) | GI50 (SNB-19 CNS) | GI50 (RXF 393 renal) | GI50 (HS 578T breast) | GI50 (ACHN renal) | GI50 (OVCAR-5 ovarian) |
| --- | --- | --- | --- | --- | --- | --- | --- | --- | --- | --- | --- | --- | --- | --- | --- | --- | --- | --- | --- |
| CS/C(C#N)=C(\C#N)SC | 37.7 µM | > 100 µM | 65.9 µM | 5.92 µM | 5.11 µM | > 100 µM | > 100 µM | 29.9 µM | > 100 µM | > 100 µM | 6.56 µM |  |  |  |  |  |  |  |  |
| Cc1cccc(O)c1-c1nnc(CCCCCCCCc2nnc(-c3c(C)cccc3O)n2N)n1N | > 100 µM | > 100 µM | > 100 µM | > 100 µM |  | > 100 µM | > 100 µM | > 100 µM | > 100 µM | > 100 µM | > 100 µM | > 31.6 µM | > 100 µM |  |  |  |  |  |  |
| c1ccc(CSc2ccccc2CN2CCN(Cc3ccccc3SCc3ccccc3)CCN(Cc3ccccc3SCc3ccccc3)CC2)cc1 | 4.61 µM | 18 µM | 5.19 µM | 3.46 µM |  |  | 2.75 µM | 10.7 µM | 2.03 µM | 6.04 µM | 2.93 µM | 2 µM | 3.02 µM |  |  |  |  |  |  |
| CCN1CCN(c2nc3ccccc3nc2C(=O)c2ccc(OC)cc2)CC1 | > 100 µM | 43.7 µM | > 100 µM |  | 43.5 µM | > 100 µM | > 100 µM | > 100 µM | 36.7 µM | > 100 µM | 37.3 µM | > 100 µM | > 100 µM |  |  |  |  |  |  |
| c1ccc(CSC2(SCc3ccccc3)CCCC2)cc1 | > 10 µM | > 10 µM | > 10 µM | > 10 µM | > 10 µM | > 10 µM | > 10 µM | > 10 µM | > 10 µM | > 10 µM | > 10 µM |  | > 10 µM |  |  |  |  |  |  |
| C[C@H]1C(=O)O[C@@H]1[C@H]1COC(C)(C)O1 | > 100 µM | > 100 µM | > 100 µM | > 100 µM | > 100 µM |  |  | > 100 µM |  | > 100 µM | > 100 µM | > 100 µM | > 100 µM |  |  |  |  |  |  |
| COC(=O)C(=O)C(C(=O)C1=NS(=O)(=O)c2cc(S(N)(=O)=O)c(Cl)cc2N1)c1nc2ccc(C(=O)c3ccccc3)cc2[nH]c1=O (stereo not drawn) | > 100 µM | > 100 µM | > 100 µM | > 100 µM | > 100 µM |  |  | > 100 µM | > 100 µM | > 100 µM | > 100 µM |  |  |  |  |  |  |  |  |
| [O-]c1c[n+](CCCC[n+]2cc([O-])on2)no1 | > 100 µM | > 100 µM | > 100 µM |  | > 100 µM | > 100 µM | > 100 µM | > 100 µM | > 100 µM | > 100 µM | > 100 µM | > 100 µM | > 100 µM |  |  |  |  |  |  |
| Nc1ccc(Oc2ccc(C3(c4ccc(Oc5ccc(N)cc5)cc4)C4CC5C6CC7CC5C3C(C7)C6C4)cc2)cc1 | > 100 µM | > 100 µM | > 100 µM | > 100 µM | 22.6 µM | > 100 µM | > 66.4 µM | > 100 µM | > 100 µM | > 100 µM | > 100 µM | 49 µM | > 100 µM |  |  |  |  |  |  |
| Nc1nc(Cl)cc(NCCCNc2cc(Cl)nc(N)n2)n1 | > 100 µM | > 100 µM |  | > 100 µM | > 100 µM |  | > 100 µM |  | > 100 µM | > 100 µM | > 100 µM | > 100 µM |  |  |  |  |  |  |  |
| CN(C)CCCNC(=O)c1cc(NC(=O)c2cc(NS(=O)(=O)c3ccc4c(c3)C(=O)c3ccccc3C4=O)cn2C)cn1C | > 100 µM | > 100 µM | > 100 µM | > 100 µM | > 100 µM |  | > 100 µM | > 100 µM | > 100 µM | > 100 µM | > 100 µM | > 100 µM | > 100 µM |  |  |  |  |  |  |
| Cc1ccc(-c2cc(-c3ccc(Cl)cc3)nc(/N=C3\C(=O)N(CN4CCOCC4)c4ccccc43)n2)cc1 | > 100 µM |  | 42.2 µM | 89.9 µM | 30.9 µM | 51.5 µM | 50.5 µM | 63.8 µM | 93.9 µM | 67.9 µM | 87.4 µM | 62.7 µM | 37.6 µM |  |  |  |  |  |  |
| O=c1oc2ccccc2n1P(=O)(n1c(=O)oc2ccccc21)n1c(=O)oc2ccccc21 | > 100 µM |  | > 100 µM | > 100 µM | > 100 µM |  | > 100 µM | > 100 µM | > 100 µM | > 100 µM | > 100 µM | > 100 µM |  |  |  |  |  |  |  |
| Cn1cc(-c2csc(-c3cn(C)c4ccc(Br)cc34)n2)c2cnccc21 | 3.3 µM |  | 3.26 µM |  | 3.2 µM | 4.73 µM |  | 3.4 µM |  | 3.22 µM |  |  |  | 1850 nM | 1730 nM | 1700 nM | 2230 nM | 1970 nM | 1780 nM |
| CN1C(=O)CN2C(Cl)(Cl)C2(c2ccccc2F)c2cc([N+](=O)[O-])ccc21 (stereo not drawn) | > 100 µM | > 100 µM |  | 92.5 µM | 66 µM |  | > 100 µM | > 100 µM | > 100 µM | > 100 µM | > 100 µM | 91.4 µM |  |  |  |  |  |  |  |
| CC1=C(C#N)C23C(=O)c4ccccc4C(O)=C2C(=O)C=CC3(O)N1 (stereo not drawn) | 5.23 µM |  | 25.5 µM | 32 µM | 9.74 µM |  | 18.9 µM | 19.9 µM | > 100 µM | 36.3 µM | 13 µM | 6.38 µM | 3.95 µM |  |  |  |  |  |  |
| Cc1ccccc1[P+](C)(c1ccccc1C)c1ccccc1C | 35.8 µM | 3.96 µM | 37.4 µM | 35.7 µM | > 100 µM | 55 µM | 30.5 µM | 29.3 µM | 38.5 µM | 33.5 µM | 41.1 µM | 58 µM |  |  |  |  |  |  |  |
| CC(N)C(=O)OCN1C(=O)C2C3C=CC(C2C1=O)C1C2C(=O)N(COC(=O)C(C)N)C(=O)C2C31 (stereo not drawn) | 41.4 µM | 54.9 µM | > 100 µM | > 100 µM | 38.7 µM |  | 35.8 µM | 70.4 µM | 44.9 µM | > 100 µM | 36.7 µM | > 100 µM |  |  |  |  |  |  |  |
| CNC1C(O)C(NC)C2OC3(O)C(=O)CC(C)OC3OC2C1O (stereo not drawn) | > 100 µM | > 100 µM | > 100 µM | > 100 µM | > 100 µM | > 100 µM | > 100 µM | > 100 µM | > 100 µM | > 100 µM | > 100 µM | > 100 µM | > 100 µM |  |  |  |  |  |  |
| Oc1cccc(-c2ccc3c4c2O[C@H]2c5[nH]c6ccccc6c5C[C@@]5(O)[C@@H](C3)N(CC3CC3)CC[C@]425)c1 |  |  | 3 µM | 28.9 µM | 2.63 µM | 3.55 µM | 3.19 µM | 3.67 µM | 3.22 µM | 4.3 µM | 3.07 µM | 4.42 µM | 3.05 µM |  |  |  |  |  |  |
| CCN1C(=S)n2cccc2C1CC(=O)c1ccc(Cl)cc1 (stereo not drawn) | > 100 µM | > 100 µM | > 100 µM |  | > 100 µM | > 100 µM | > 100 µM | > 100 µM | > 100 µM | > 100 µM | > 100 µM | > 100 µM | > 100 µM |  |  |  |  |  |  |
| O=Nc1c(-c2c(O)[nH]c3ccccc23)[nH]c2ccccc12 | 27.7 µM | 9.95 µM | > 100 µM |  | 13.2 µM | > 29.1 µM | 41.4 µM | > 32.1 µM | > 29.6 µM | > 86.4 µM | 25.9 µM | > 29.6 µM | > 47.4 µM |  |  |  |  |  |  |
| C=C1C(=O)OC2/C=C(\C)C3OC3/C=C(/C(=O)OC)C(O)C(OC(=O)C3(C)OC3C)C12 (stereo not drawn) | 3.17 µM |  |  | 32.2 µM | 2.22 µM |  | 3.75 µM | 10.7 µM | 2.43 µM | 30.4 µM | 4.7 µM | 5.68 µM |  |  |  |  |  |  |  |
| CN(C)CC1CCCC(CN2CCCCC2)C1=O (stereo not drawn) | 27.6 µM | 1.29 µM | > 100 µM | 43.1 µM | 26.6 µM | 59 µM | 18.3 µM | 13.6 µM | 7.53 µM | 46.5 µM | 18.7 µM | 3.8 µM | 27.5 µM |  |  |  |  |  |  |
| C=CCc1c(C)nc(C)nc1N/N=C/C=C/c1ccccc1 | > 100 µM | 74.9 µM | > 100 µM | > 100 µM | 47 µM | > 100 µM | > 100 µM | > 100 µM | > 100 µM | > 100 µM | > 100 µM | 99.5 µM | > 100 µM |  |  |  |  |  |  |
| CC(C)OC(=O)Nc1cccc(Cl)c1 | > 100 µM | > 100 µM | > 100 µM | > 100 µM | > 100 µM | > 100 µM | > 100 µM | > 100 µM | > 100 µM | > 100 µM | > 100 µM | > 100 µM | > 100 µM |  |  |  |  |  |  |
| CC(=O)OCc1ccc2oc(=O)c(C(=O)Oc3cccc(Cl)c3)cc2c1 | > 100 µM | > 100 µM | > 100 µM | > 100 µM | > 100 µM | > 100 µM | > 100 µM | > 100 µM | 54.5 µM | > 100 µM | > 100 µM | 43.5 µM | > 100 µM |  |  |  |  |  |  |
| Cc1nc2c(O)cc3c4c(=O)n(C)c(=O)n(C)c4n(Cc4ccccc4)c3c2nc1C | 28 µM | 51.8 µM | 34.4 µM | 55.3 µM | 26.7 µM | 80.1 µM | 37.4 µM | 31.7 µM | 52.1 µM | 43.6 µM | 36.6 µM | 27.2 µM | 34.2 µM |  |  |  |  |  |  |
| NC(=O)c1ccc(NS(=O)(=O)c2ccc(N)cc2)nc1 | > 100 µM | > 100 µM | > 100 µM | > 100 µM |  | > 100 µM | > 100 µM | > 100 µM | > 100 µM | > 100 µM | > 100 µM | > 100 µM | > 100 µM |  |  |  |  |  |  |
| CCCCC(C(=O)N/N=C/c1ccc([N+](=O)[O-])o1)C(=O)N/N=C/c1ccc([N+](=O)[O-])o1 | 14.7 µM | 3.18 µM | 13.7 µM | 5.1 µM | 5.07 µM | 5.57 µM | 5.92 µM | 3.69 µM | 2.9 µM | 7.23 µM | 13.6 µM | 4.08 µM | 16.1 µM |  |  |  |  |  |  |
